For experiment [1], the system named is endogenous hRpn13. The experiment in a line: anti-FLAG immunoprecipitation, immunoprobed for endogenous hRpn13. The format is cell-based, human. As to conditions: 293T cells transfected with p3XFLAG-CMV7.1 plasmid; anti-FLAG IP, anti-Rpn13 immunoblot. The procedure: (§1) 293T cells (purchased from ATCC) were cultured in DMEM supplemented with 10% fetal bovine serum at 37°C in a humidified atmosphere and 5% CO2. Plasmid DNA was transfected into 293T cells using Lipofectamine2000 (Invitrogen) according to the manufacturer’s instruction. Cells were harvested by gentle centrifugation at 500g for 5 minutes at 4°C after washing with PBS, and cell pellets were resuspended in 1% Triton-TBS buffer (50 mM Tris, pH7.5, 150 mM NaCl, 1 mM EDTA and protease inhibitor cocktail) followed by rocking at 4°C for 30 minutes. The supernatant was collected following centrifugation at 16,000g for 10 minutes and incubated with antibodies at 4°C overnight. Protein G sepharose beads (Sigma) were used to pull down interacting proteins by 3-hour incubation at 4°C. After extensive washing with 1% Triton TBS buffer, SDS-PAGE loading buffer was used to elute proteins from beads for immunoblotting.
The resulting plasmid was transfected into 293T cells and the cell lysate immunoprecipitated with anti-FLAG antibody.

Experiment [2] has as its system proteasome subunit hRpn2. The experiment in a line: anti-FLAG immunoprecipitation, immunoprobed for endogenous hRpn2. The format is cell-based, human. The note with it: 293T cells; anti-FLAG IP; Fig 5A. The procedure:
(§2) The DNA fragment encoding amino acid 916 to 953 of hRpn2 was amplified by PCR and cloned into the bacterial expression vector pRSET and mammalian expression vector p3XFLAG-CMV7.1. Antibodies used in this study include anti-FLAG (Sigma), anti-hRpn2 (cell signaling), anti-hRpt3 (Abcam), and anti-hRpn13 (Abcam).
as §1, with “immunoblotting. […]” for “immunoblotting.”

The subject of experiment [3] is proteasome subunit hRpt3. The experiment in a line: anti-FLAG immunoprecipitation, immunoprobed for endogenous hRpt3. Type of experiment: cell-based, human. As to conditions: 293T cells; anti-FLAG IP; Fig 5A. The procedure: as §2
as §1, with “immunoblotting. […]” for “immunoblotting.”

Experiment [4] deals with hRpn13 at the proteasome. The experiment in a line: anti-hRpt3 immunoprecipitation of proteasome, immunoprobed for hRpn13 (displacement). The format is cell-based, human. As to conditions: 293T cells over-expressing peptide; anti-hRpt3 IP, anti-hRpn13 immunoblot; Fig 6A. The procedure:
as §2
as §1, with “After extensive washing with 1% Triton TBS buffer, SDS-PAGE loading buffer was used to elute proteins from beads for immunoblotting.” left out
(§3) We next tested whether over-expression of the hRpn2-derived peptide depletes hRpn13 from the proteasome. For this purpose, we immunoprecipitated proteasome by anti-hRpt3 antibody and detected the presence of hRpn13 by immunoprobing with anti-hRpn13 antibody.

In experiment [5] the test system is hRpn2 in the proteasome. The experiment in a line: anti-hRpt3 immunoprecipitation of proteasome, immunoprobed for hRpn2. Type of experiment: cell-based, human. The note with it: 293T cells over-expressing peptide; anti-hRpt3 IP; Fig 6A. The procedure: as §2
as §1, with “After extensive washing with 1% Triton TBS buffer, SDS-PAGE loading buffer was used to elute proteins from beads for immunoblotting.” left out
as §3

Experiment [6] relates to ubiquitinated proteins in 293T cells. As to the kind of experiment: accumulation of ubiquitinated proteins, immunoblot of cell lysates. The format is cell-based, human. As to conditions: 293T cells transfected with HA-ubiquitin and peptide plasmid; anti-ubiquitin immunoblot, actin loading control; Fig 6B. The protocol:
as §1
We next tested whether over-expression of the hRpn2-derived peptide in 293T cells leads to the accumulation of ubiquitinated proteins. Lysates from cells transfected with HA-ubiquitin alone or together with either FLAG-hRpn2 (916–953) WT or F948Stop were subjected to immunoblotting with anti-ubiquitin antibody. Cells expressing F948Stop were used as a negative control, and immunoblotting with anti-actin antibody to confirm equivalent loading.

In experiment [7] the test system is Rpn13 Cys88. The note with it: ref [22]; cited from earlier work. From the text:
(§4) hRpn13 functions in ovarian and colorectal cancer proliferation, and its knockdown triggers apoptosis in these and other cancer cell lines.

In experiment [8] the test system is Rpn13 interdomain interactions. The note with it: ref [22]; cited from earlier work.
Excerpt: as §4

For experiment [9], the system named is multiple myeloma and ovarian cancer xenografts. As to conditions: ref [22]; cited from earlier work.
Excerpt: as §4

Experiment [10] deals with ubiquitin-mediated protein degradation. The note with it: ref [22]; cited from earlier work.
Excerpt: as §4

For experiment [11], the target named is T1, hRpn13 (1–150) (human, UniProt Q16186 1-150).
T1 construct: human Rpn13/Adrm1, Pru (pleckstrin-like receptor for ubiquitin) domain, residues 1-150; also called hRpn13 Pru domain; hRpn13 Pru
T1 sequence (Q16186 1-150): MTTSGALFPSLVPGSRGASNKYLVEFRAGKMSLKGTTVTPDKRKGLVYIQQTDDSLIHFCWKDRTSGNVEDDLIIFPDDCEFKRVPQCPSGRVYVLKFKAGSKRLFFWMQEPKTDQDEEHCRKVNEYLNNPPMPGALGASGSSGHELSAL
As to the kind of experiment: ITC; 200 μM hRpn2 (916-953) injected into 20 μM hRpn13 (1-150) in the cell; 25°C; 20 mM sodium phosphate, 50 mM NaCl, 10 mM βME, pH 6.5; one-site fit. The note with it: both partners purified.

In experiment [12] the target is T1, hRpn13 (1–150). The experiment in a line: SEC + other: LC-MS; hRpn2 (916-953):hRpn13 Pru complex passed over a size exclusion column after mixing to remove excess component; molar ratio evaluated by LC-MS. As to conditions: both partners purified.

This is an account of results in article PMC4605517 (PLoS ONE, 2015).

No end group written: not given here. FLAG = FLAG epitope tag (3XFLAG, N-terminal)

Take “FLAG-hRpn2 (916–953) WT: hRpn2 (916–953) fragment in frame with an N-terminal FLAG tag, expressed from p3XFLAG-CMV7.1 in 293T cells ({FLAG}-DTSEDIEELVEPVAAHGPKIEEEEQEPEPPEPFEYIDD; UniProt Q99460 916-953, looked up, fragment)”: the “immunoprecipitation of / interaction with endogenous hRpn13” value (“immunoprecipitation of / interaction” below) in [1] was “confirmed the interaction of the hRpn2-derived peptide with endogenous hRpn13 in 293T cells”. The “immunoprecipitation of endogenous hRpn2” value in experiment [2] is “neither of these RP components was immunoprecipitated by the peptide”. Further, in experiment [3], the “immunoprecipitation of endogenous hRpt3” value is “neither of these RP components was immunoprecipitated by the peptide”. In [4], the “amount of hRpn13 at the proteasome” value is on record as “significantly reduced the amount of hRpn13 at the proteasome”. The “assembly of hRpn2 into the proteasome” value in experiment [5] is listed as “not affected by expression of the hRpn2-derived peptide”. Besides, the “presence of ubiquitinated proteins in cell lysate” value in experiment [6] is “increase in the presence of ubiquitinated proteins”.
For `Cl.N[C@@H](Cc1ccccc1)C(=O)N1C/C(=C/c2ccc(Cl)c(Cl)c2)C(=O)/C(=C\c2ccc(Cl)c(Cl)c2)C1` [RA190], in [7], the “covalent attachment to Rpn13” value is on record as “covalently attaches to Rpn13 Cys88”. Moreover, the “effect on Rpn13 interdomain interactions” value in experiment [8] is on record as “abrogates Rpn13 interdomain interactions”. Besides, in [9], the “growth of multiple myeloma and ovarian cancer xenografts” value is “restricts growth of multiple myeloma and ovarian cancer xenografts”. The “effect on ubiquitin-mediated protein degradation” value in experiment [10] was “inhibits ubiquitin-mediated protein degradation”.
Take “F948Stop: FLAG-hRpn2 (916–953) variant with F948 replaced with a stop codon; negative control (DTSEDIEELVEPVAAHGPKIEEEEQEPEPPEP; not fully specified (N-terminus))”: in experiment [1], the “immunoprecipitation of / interaction” value was “does not bind hRpn13”. For the same molecule, the “amount of hRpn13 at the proteasome” value in experiment [4] is listed as “does not deplete hRpn13 from proteasome”. Further, the “presence of ubiquitinated proteins in cell lysate” value in [6] was “increase was not observed”.
Take “F948 with arginine: FLAG-hRpn2 (916–953) variant with F948 replaced with arginine ({FLAG}-DTSEDIEELVEPVAAHGPKIEEEEQEPEPPEPREYIDD; UniProt Q99460 916-953, looked up, variant F948R)”: in [1], the “immunoprecipitation of / interaction” value was “unable to immunoprecipitate endogenous hRpn13 from 293T cells”.

B1: hRpn2 (916–953) (peptide)
chain: GPGSDTSEDIEELVEPVAAHGPKIEEEEQEPEPPEPFEYIDD
notes: amino acids that remained at the N-terminal end from the PreScission protease tag after cleavage; human Rpn2/PSMD1, proteasome PC repeat protein, residues 916-953 (the C-terminal 38 amino acids); also called hRpn2-derived peptide; 38-amino acid peptide derived from the C-terminus of hRpn2/PSMD1; source: E. coli, purified (glutathione S-sepharose, PreScission cleavage, Superdex 75); not shown: …
B1: the affinity in experiment [11], expressed as Kd, was 12 nM. For the same molecule, in experiment [12], the “stoichiometry N” value turned out to be 1.
